# Source: US20160280731A1, “CRYSTALLINE FORMS B, C, and D OF CANAGLIFLOZIN” (CRYSTAL PHARMATECH CO., LTD, priority 2013, published 2016)
# Assays:
# [1] = Stability assessment of Form B under stress conditions (XRPD after storage); format: physicochemical; conditions: 30 days; for Final form: dish open, XRPD
# Procedure: Two samples of canagliflozin Form B were stored under 25° C./60% RH and 40° C./75% RH, respectively, with dish open for 30 days. The solid samples were analyzed by XRPD.
# [2] = Kinetic solubility in FeSSIF and FaSSIF; format: physicochemical; conditions: for Solubility in comparison to the hemihydrate form (WO2008069327A1): FeSSIF and FaSSIF, 1 h, 4 h, 24 h; for Solubility in comparison to the hemihydrate form (WO2008069327A1) / solubility at 1 h / solubility at 4 h / solubility at 24 h: RT; for solubility at 1 h / solubility at 4 h / solubility at 24 h: thermodynamic from solid
# Procedure: Kinetic solubility of canagliflozin in crystalline Form B and its hemihydrate form in fed state simulated intestinal fluid (FeSSIF) and fasted state simulated intestinal fluid (FaSSIF) were measured using the following procedures:
# 1. Weighed approximately 30 mg of compound into a tared 4 mL plastic vial and recorded the actual weight of the compound.
# 2. Added 3 mL of water or bio-relevant medium into each vial.
# 3. Covered the vials with caps and kept all the suspension samples stirring at RT using a rolling incubator with a speed of 25 r/min.
# 4. Sampled at 1 h, 4 h and 24 h respectively.
# 5. Centrifuged the filtration tubes in a speed of 8500 rpm for 3 minutes at RT, collected 0.2 mL supernatant for HPLC quantification determination and the rest of solution for pH measurement, and separated the solid for XRPD characterization.
# Kinetic solubility of canagliflozin Form C and hemihydrate in fed state simulated intestinal fluid (FeSSIF) and fasted state simulated intestinal fluid (FaSSIF) were measured using the following procedures:
# 5. Centrifuged filtration tubes in a speed of 8500 rpm for 3 minutes at RT, collected 0.2 mL supernatant for HPLC quantification determination and the rest of solution for pH measurement, and separated the solid for XRPD characterization.
Stability under the stress conditions ([1]; 25° C./60% RH and 40° C./75% RH),Final form ([1]; stored under 25° C./60% RH),Final form ([1]; stored under 40° C./75% RH),Solubility in comparison to the hemihydrate form (WO2008069327A1) [2],"solubility at 1 h ([2]; fasted state simulated intestinal fluid (FaSSIF), fassif, time point 1 h) [µg/mL]","solubility at 4 h ([2]; fasted state simulated intestinal fluid (FaSSIF), fassif, time point 4 h) [µg/mL]","solubility at 24 h ([2]; fasted state simulated intestinal fluid (FaSSIF), fassif, time point 24 h) [µg/mL]","solubility at 1 h ([2]; fed state simulated intestinal fluid (FeSSIF), fessif, time point 1 h) [µg/mL]","solubility at 4 h ([2]; fed state simulated intestinal fluid (FeSSIF), fessif, time point 4 h) [µg/mL]","solubility at 24 h ([2]; fed state simulated intestinal fluid (FeSSIF), fessif, time point 24 h) [µg/mL]","Solubility at RT ([2]; FaSSIF, time point 1 h) [µg/mL]","Solubility at RT ([2]; FaSSIF, time point 4 h) [µg/mL]","Solubility at RT ([2]; FaSSIF, time point 24 h) [µg/mL]","Solubility at RT ([2]; FeSSIF, time point 1 h) [µg/mL]","Solubility at RT ([2]; FeSSIF, time point 4 h) [µg/mL]","Solubility at RT ([2]; FeSSIF, time point 24 h) [µg/mL]",SMILES
stable,Form B,Form B,higher solubility,500,510,480,4720,4760,4350,–,–,–,–,–,–,"Cc1ccc([C@@H]2O[C@H](CO)[C@@H](O)[C@H](O)[C@H]2O)cc1Cc1ccc(-c2ccc(F)cc2)s1 [Form B, (2S,3R,4R,5S,6R)-2-{3-[5-[4-fluoro-phenyl)-thiophen-2-ylmethyl]-4-methyl-phenyl -}-6-hydroxymethyl-tetrahydro-pyran-3,4,5-triol]"
–,–,–,higher solubility,–,–,–,–,–,–,410,440,420,4600,4700,4500,"Cc1ccc([C@@H]2O[C@H](CO)[C@@H](O)[C@H](O)[C@H]2O)cc1Cc1ccc(-c2ccc(F)cc2)s1 [Form C, (2S,3R,4R,5S,6R)-2-{3-[5-[4-fluoro-phenyl)-thiophen-2-ylmethyl]-4-methyl-phenyl -}-6-hydroxymethyl-tetrahydro-pyran-3,4,5-triol]"
–,–,–,–,–,–,–,–,–,–,360,370,370,3340,3500,3700,"Cc1ccc([C@@H]2O[C@H](CO)[C@@H](O)[C@H](O)[C@H]2O)cc1Cc1ccc(-c2ccc(F)cc2)s1 [WO2008069327A1 hemihydrate, (2S,3R,4R,5S,6R)-2-{3-[5-[4-fluoro-phenyl)-thiophen-2-ylmethyl]-4-methyl-phenyl -}-6-hydroxymethyl-tetrahydro-pyran-3,4,5-triol, reference compound]"
